ChEMBL document CHEMBL3046257, “Response of sweet maize (Zea mays L.) hybrids to halosulfuron” (Crop Prot, 2008)

Assays:
Format in all cases: organism-based
Zea mays [1] = test: Toxicity in Zea mays GG446 (maize) assessed as cob size at 50 g ai/ha applied shortly post-emergence at three to five-leaf stage using backpack sprayer (reference value: 379 g); conditions: in vivo, other
Zea mays [2] = test: Toxicity in Zea mays Empire (maize) assessed as plant height at 50 g ai/ha applied shortly post-emergence at three to five-leaf stage using backpack sprayer measured after 21 days (Rvb =73 cm); conditions: in vivo, other, 504 h
Zea mays [3] = test: Toxicity in Zea mays Empire (maize) assessed as visible injury at 25 g ai/ha applied shortly post-emergence at three to five-leaf stage using backpack sprayer measured after 28 days; conditions: in vivo, other, 672 h
Zea mays [4] = test: Toxicity in Zea mays GG446 (maize) assessed as visible injury at 25 g ai/ha applied shortly post-emergence at three to five-leaf stage using backpack sprayer measured after 28 days; conditions: in vivo, other, 672 h
Zea mays [5] = test: Toxicity in Zea mays GSS9299 (maize) assessed as cob size at 25 g ai/ha applied shortly post-emergence at three to five-leaf stage using backpack sprayer (reference value: 292 g); conditions: in vivo, other
Zea mays [6] = test: Toxicity in Zea mays GH2547 (maize) assessed as cob size at 50 g ai/ha applied shortly post-emergence at three to five-leaf stage using backpack sprayer (reference value: 315 g); conditions: in vivo, other
Zea mays [7] = test: Toxicity in Zea mays GH2547 (maize) assessed as marketable yield at 50 g ai/ha applied shortly post-emergence at three to five-leaf stage using backpack sprayer (reference value: 16.7 T/ha ); conditions: in vivo, other
Zea mays [8] = test: Toxicity in Zea mays GH2041 (maize) assessed as visible injury at 25 g ai/ha applied shortly post-emergence at three to five-leaf stage using backpack sprayer measured after 28 days; conditions: in vivo, other, 672 h
Zea mays [9] = test: Toxicity in Zea mays GH2041 (maize) assessed as plant height at 25 g ai/ha applied shortly post-emergence at three to five-leaf stage using backpack sprayer measured after 21 days (Rvb =80 cm); conditions: in vivo, other, 504 h
Zea mays [10] = test: Toxicity in Zea mays GH2298 (maize) assessed as cob size at 50 g ai/ha applied shortly post-emergence at three to five-leaf stage using backpack sprayer (reference value: 307 g); conditions: in vivo, other
Zea mays [11] = test: Toxicity in Zea mays Empire (maize) assessed as cob size at 50 g ai/ha applied shortly post-emergence at three to five-leaf stage using backpack sprayer (reference value: 304 g); conditions: in vivo, other
Zea mays [12] = test: Toxicity in Zea mays GG214 (maize) assessed as visible injury at 50 g ai/ha applied shortly post-emergence at three to five-leaf stage using backpack sprayer measured after 14 days; conditions: in vivo, other, 336 h
Zea mays [13] = test: Toxicity in Zea mays GSS9299 (maize) assessed as plant height at 25 g ai/ha applied shortly post-emergence at three to five-leaf stage using backpack sprayer measured after 21 days (Rvb =69 cm); conditions: in vivo, other, 504 h
Zea mays [14] = test: Toxicity in Zea mays Empire (maize) assessed as cob size at 25 g ai/ha applied shortly post-emergence at three to five-leaf stage using backpack sprayer (reference value: 304 g); conditions: in vivo, other
Zea mays [15] = test: Toxicity in Zea mays GH2684 (maize) assessed as plant height at 50 g ai/ha applied shortly post-emergence at three to five-leaf stage using backpack sprayer measured after 21 days (Rvb =73 cm); conditions: in vivo, other, 504 h
Zea mays [16] = test: Toxicity in Zea mays GH2684 (maize) assessed as cob size at 25 g ai/ha applied shortly post-emergence at three to five-leaf stage using backpack sprayer (reference value: 340 g); conditions: in vivo, other
Zea mays [17] = test: Toxicity in Zea mays GSS9299 (maize) assessed as visible injury at 25 g ai/ha applied shortly post-emergence at three to five-leaf stage using backpack sprayer measured after 14 days; conditions: in vivo, other, 336 h
Zea mays [18] = test: Toxicity in Zea mays Empire (maize) assessed as plant height at 25 g ai/ha applied shortly post-emergence at three to five-leaf stage using backpack sprayer measured after 21 days (Rvb =73 cm); conditions: in vivo, other, 504 h
Zea mays [19] = test: Toxicity in Zea mays Empire (maize) assessed as visible injury at 25 g ai/ha applied shortly post-emergence at three to five-leaf stage using backpack sprayer measured after 14 days; conditions: in vivo, other, 336 h
Zea mays [20] = test: Toxicity in Zea mays GH2298 (maize) assessed as visible injury at 50 g ai/ha applied shortly post-emergence at three to five-leaf stage using backpack sprayer measured after 28 days; conditions: in vivo, other, 672 h
Zea mays [21] = test: Toxicity in Zea mays GG214 (maize) assessed as plant height at 50 g ai/ha applied shortly post-emergence at three to five-leaf stage using backpack sprayer measured after 21 days (Rvb =81 cm); conditions: in vivo, other, 504 h
Zea mays [22] = test: Toxicity in Zea mays GH2298 (maize) assessed as visible injury at 50 g ai/ha applied shortly post-emergence at three to five-leaf stage using backpack sprayer measured after 14 days; conditions: in vivo, other, 336 h
Zea mays [23] = test: Toxicity in Zea mays GH2547 (maize) assessed as cob size at 25 g ai/ha applied shortly post-emergence at three to five-leaf stage using backpack sprayer (reference value: 315 g); conditions: in vivo, other
Zea mays [24] = test: Toxicity in Zea mays GG214 (maize) assessed as visible injury at 25 g ai/ha applied shortly post-emergence at three to five-leaf stage using backpack sprayer measured after 28 days; conditions: in vivo, other, 672 h
Zea mays [25] = test: Toxicity in Zea mays GH2298 (maize) assessed as marketable yield at 50 g ai/ha applied shortly post-emergence at three to five-leaf stage using backpack sprayer (reference value: 16.9 T/ha ); conditions: in vivo, other
Zea mays [26] = test: Toxicity in Zea mays GH2041 (maize) assessed as marketable yield at 25 g ai/ha applied shortly post-emergence at three to five-leaf stage using backpack sprayer (reference value: 12.2 T/ha ); conditions: in vivo, other
Zea mays [27] = test: Toxicity in Zea mays GH2684 (maize) assessed as visible injury at 50 g ai/ha applied shortly post-emergence at three to five-leaf stage using backpack sprayer measured after 7 days; conditions: in vivo, other, 168 h
Zea mays [28] = test: Toxicity in Zea mays GH2041 (maize) assessed as cob size at 25 g ai/ha applied shortly post-emergence at three to five-leaf stage using backpack sprayer (reference value: 285 g); conditions: in vivo, other
Zea mays [29] = test: Toxicity in Zea mays GG214 (maize) assessed as visible injury at 50 g ai/ha applied shortly post-emergence at three to five-leaf stage using backpack sprayer measured after 28 days; conditions: in vivo, other, 672 h
Zea mays [30] = test: Toxicity in Zea mays GH2041 (maize) assessed as marketable yield at 50 g ai/ha applied shortly post-emergence at three to five-leaf stage using backpack sprayer (reference value: 12.2 T/ha ); conditions: in vivo, other
Zea mays [31] = test: Toxicity in Zea mays Empire (maize) assessed as visible injury at 50 g ai/ha applied shortly post-emergence at three to five-leaf stage using backpack sprayer measured after 14 days; conditions: in vivo, other, 336 h
Zea mays [32] = test: Toxicity in Zea mays GH2684 (maize) assessed as plant height at 25 g ai/ha applied shortly post-emergence at three to five-leaf stage using backpack sprayer measured after 21 days (Rvb =73 cm); conditions: in vivo, other, 504 h
Zea mays [33] = test: Toxicity in Zea mays GSS9299 (maize) assessed as marketable yield at 25 g ai/ha applied shortly post-emergence at three to five-leaf stage using backpack sprayer (reference value: 13.2 T/ha ); conditions: in vivo, other

Which Activity (Zea mays [1]) does the source give for COc1cc(OC)nc(NC(=O)NS(=O)(=O)c2c(C(=O)O)c(Cl)nn2C)n1 [HALOSULFURON] here?
Its Activity is 387 g.

What about the Activity (Zea mays [2]) of the same compound?
Its Activity is 69 cm.

And the Activity (Zea mays [3])?
The Activity was 0%.

What about the Activity (Zea mays [4]) of the same compound?
The Activity was 0%.

And the Activity (Zea mays [5])?
The Activity was 301 g.

What about the Activity (Zea mays [6]) of the same compound?
Its Activity is 312 g.

What about the Crop_yield (Zea mays [7]) of the same compound?
The Crop_yield was 15.7 tons/ha.

What about the Activity (Zea mays [8]) of the same compound?
The Activity was 0%.

And the Activity (Zea mays [9])?
The Activity was 76 cm.

And the Activity (Zea mays [10])?
Its Activity is 308 g.

What about the Activity (Zea mays [11]) of the same compound?
Its Activity is 289 g.

What about the Activity (Zea mays [12]) of the same compound?
Its Activity is 1%.

And the Activity (Zea mays [13])?
The Activity was 68 cm.

And the Activity (Zea mays [14])?
Its Activity is 299 g.

What about the Activity (Zea mays [15]) of the same compound?
Its Activity is 73 cm.

What about the Activity (Zea mays [16]) of the same compound?
Its Activity is 316 g.

What about the Activity (Zea mays [17]) of the same compound?
The Activity was 2%.

And the Activity (Zea mays [18])?
Its Activity is 69 cm.

And the Activity (Zea mays [19])?
The Activity was 3%.

What about the Activity (Zea mays [20]) of the same compound?
The Activity was 1%.

What about the Activity (Zea mays [21]) of the same compound?
The Activity was 75 cm.

And the Activity (Zea mays [22])?
Its Activity is 4%.

And the Activity (Zea mays [23])?
The Activity was 310 g.

And the Activity (Zea mays [24])?
Its Activity is 0%.

What about the Crop_yield (Zea mays [25]) of the same compound?
Its Crop_yield is 15.7 tons/ha.

What about the Crop_yield (Zea mays [26]) of the same compound?
The Crop_yield was 11.8 tons/ha.

What about the Activity (Zea mays [27]) of the same compound?
The Activity was 7%.

What about the Activity (Zea mays [28]) of the same compound?
Its Activity is 273 g.

And the Activity (Zea mays [29])?
Its Activity is 1%.

And the Crop_yield (Zea mays [30])?
The Crop_yield was 11.3 tons/ha.

What about the Activity (Zea mays [31]) of the same compound?
The Activity was 6%.

What about the Activity (Zea mays [32]) of the same compound?
Its Activity is 76 cm.

What about the Crop_yield (Zea mays [33]) of the same compound?
Its Crop_yield is 12.3 tons/ha.
